Assays:
[1] = test system: Bak^−/−Bax^−/− MEF cells stably re-expressing Bax, Bak, or the empty vector; assay: Cell death by propidium iodide exclusion in MEF cells re-expressing Bax or Bak; type: cell-based; details: for rank by activity to induce Bax-dependent apoptosis: rank among the six Bax activator compounds
Description: (§1) Cell lines: Bak^−/−Bax^−/− murine embryonic fibroblast (MEF) cells expressing the empty vector, Bak or Bax were cultured as described previously. Human non-small cell lung carcinoma A549 and human pancreatic carcinoma Panc-1 were purchased from ATCC (Manassas, Va.). Untransformed and transformed MEF cells were kindly provided by Dr. Wei-Xing Zong. Bax^+/− and Bax^−/− HCT116 cells were obtained from Drs. Bert Vogelstein and Kenneth Kinzler. All cells were cultured at 37° C. in a 5% CO2 incubator as described previously (42). To generate A549 cells with reduced Bax expression or vector control, cells were first infected by Bax shRNA lentiviral particles or control shRNA lentiviral particles (Santa Cruz). Stable cells were obtained by culturing cells in the medium with 10 μg/ml puromycin.
(§2) Cell death analysis and Chou-Talalay synergism assay: Cell viability was measured by propidium iodide exclusion using flow cytometry (FACSCalibur, Becton Dickinson) as described previously. The synergistic effect between compound 106 and carboplatin or ABT-737 on cell viability was determined by Chou-Talalay median dose effect assay. IC50 of compound 106, carboplatin, and ABT-7373 on a tumor cell line was first determined. Different combinations of drugs at a fixed ratio higher or lower than their IC50 values were added to cells. After incubation for the indicated time, cell viability was examined and Fa was calculated as the ratio between the cell death levels of drug-treated cells and those of untreated control cells. Combination index (CI) was determined by the CompuSyn software (Biosoft, Cambridge, UK).
The inventors tested candidate agents by first determining whether cytotoxicity was dependent on Bax but not on Bak. Bax^−/−Bak^−/− murine embryonic fibroblast (MEF) cell lines stably re-expressing only Bax or Bak were established (FIG. 3).

[2] = test system: A549 cells with Bax shRNA or control shRNA vector; assay: Cell death in A549 cells with reduced Bax expression or control shRNA; type: cell-based, human; details: 48 hour incubation
Description: as §1
as §2, with “The synergistic effect between compound 106 and carboplatin or ABT-737 on cell viability was determined by Chou-Talalay median dose effect assay.” left out, “Different combinations of drugs at a fixed ratio higher or lower than their IC50 values were added to cells.” left out, “UK). […]” for “UK).”

[3] = test system: Bax^+/− and Bax^−/− HCT116 cells; assay: Cell death in HCT116 cells with or without Bax expression; type: cell-based, human; details: 48 hour incubation
Description: as §1
as §2, with “The synergistic effect between compound 106 and carboplatin or ABT-737 on cell viability was determined by Chou-Talalay median dose effect assay.” left out, “Different combinations of drugs at a fixed ratio higher or lower than their IC50 values were added to cells.” left out, “UK). […]” for “UK).”

Bax = Bax (Homo sapiens, UniProt Q07812); details: non-canonical BH3 interaction site; cited from earlier work
[4] = test system: anti-apoptotic Bcl-2 proteins, including Bcl-2, Bcl-xL, and Bcl-w; details: cited from earlier work
A549 cells = assay: Chou-Talalay synergism assay in A549 cells; type: cell-based, human; details: compound 106 (80-240 μM) with carboplatin (80-240 μM), constant ratio, 48 hours
Description: as §2, with “The synergistic effect between compound 106 and carboplatin or ABT-737 on cell viability was determined by Chou-Talalay median dose effect assay.” left out, “Different combinations of drugs at a fixed ratio higher or lower than their IC50 values were added to cells.” left out
(§3) To explore the potential of compound 106 functioning in combination chemotherapy, the inventors investigated whether compound 106 sensitizes tumor cells to die following simultaneous treatment with a chemotherapeutic drug. Carboplatin is currently used to treat non-small-cell lung cancer and human pancreatic cancer. To investigate whether the cytotoxic effects of compound 106 and carboplatin on human tumor cells were synergistic, the inventors carried out median-effect analysis using the Chou-Talalay method. After 48 hours of treatment, the cell death levels of A549 and PANC-1 cells treated with various concentrations of compound 106 and carboplatin at a constant dose ratio were measured, and the combination index (CI) values were determined.

PANC-1 cells = assay: Chou-Talalay synergism assay in PANC-1 cells; type: cell-based, human; details: compound 106 (3.3-240 μM) with carboplatin (3.3-240 μM), constant ratio, 48 hours
Description: as §2, with “The synergistic effect between compound 106 and carboplatin or ABT-737 on cell viability was determined by Chou-Talalay median dose effect assay.” left out, “Different combinations of drugs at a fixed ratio higher or lower than their IC50 values were added to cells.” left out
as §3

Chain of Bax (Q07812 whole entry, species assumed): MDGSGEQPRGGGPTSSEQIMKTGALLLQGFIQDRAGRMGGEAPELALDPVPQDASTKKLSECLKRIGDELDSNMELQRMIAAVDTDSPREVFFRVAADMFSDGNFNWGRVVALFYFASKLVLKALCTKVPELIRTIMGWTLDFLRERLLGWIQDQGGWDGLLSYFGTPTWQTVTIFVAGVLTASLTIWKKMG

Compound: CC(C)CN1CC(OCc2cccnc2)CN(C(=O)Cc2ccc3c(c2)OCO3)CC1=O (stereo not drawn) [ZINC14531256, 4-(1,3-benzodioxol-5-ylacetyl)-1-isobutyl-6-(3-pyridinylmethoxy)-1,4-diazepan-2-one]
- rank by activity to induce Bax-dependent apoptosis [1]: 6

Compound: COc1ccccc1-c1nc2cc(N)cc(C(=O)NC3CCCN(Cc4ccccc4)C3)c2n1C (stereo not drawn) [ZINC 12150973, 5-amino-N-(1-benzyl-3-piperidinyl)-2-(2-methoxyphenyl)-1-methyl-1H-benzimidazole-7-carboxamide]
- rank by activity to induce Bax-dependent apoptosis [1]: 4

Compound: CC[C@]1(O)C[C@H]2CN(CCc3c([nH]c4ccccc34)[C@@](C(=O)OC)(c3cc4c(cc3OC)N(C=O)[C@H]3[C@@](O)(C(=O)OC)[C@H](OC(C)=O)[C@]5(CC)C=CCN6CC[C@]43[C@@H]65)C2)C1 [vincristine]
- cell death, reduced Bax expression versus control shRNA [2]: Decrease in Bax expression did not affect killing activities
- cell death, Bax expressing versus Bax lacking HCT116 cells [3]: Lack of Bax expression in HCT116 cells did not affect killing activities

Compound: CCn1nc(C)c(CN2CCCC(N3CCN(c4ccc(OC)cc4)CC3)C2)c1C (stereo not drawn) [ZINC20110124, 1-{1-[(1-ethyl-3,5-dimethyl-1H-pyrazol-4-yl)methyl]-3-piperidinyl}-4-(4-methoxyphenyl)piperazine]
- rank by activity to induce Bax-dependent apoptosis [1]: 2

Compound: BAM7
- Bax binding and activation (Bax): directly binds Bax and activates Bax by triggering Bax oligomerization

Compound: CN(C)CC[C@H](CSc1ccccc1)Nc1ccc(S(=O)(=O)NC(=O)c2ccc(N3CCN(Cc4ccccc4-c4ccc(Cl)cc4)CC3)cc2)cc1[N+](=O)[O-] [ABT-737]
- binding affinity [4]: bind with high affinity

Compound: COc1ccccc1N1CCN(Cn2nc(-c3ccc(F)cc3)n(CC3CCCO3)c2=S)CC1 (stereo not drawn) [ZINC16076241, 5-(4-fluorophenyl)-2-[[4-(2-methoxyphenyl)piperazin-1-yl]methyl]-4-(oxolan-2-ylmethyl)-1,2,4-triazole-3-thione]
- rank by activity to induce Bax-dependent apoptosis [1]: 5

Compound: N.N.O=C([O-])C1(C(=O)[O-])CCC1.[Pt+2] [carboplatin, cis-Diammine (1,1-cyclobutanedicarboxylato)platinum(II)]
- cell death, reduced Bax expression versus control shRNA [2]: Decrease in Bax expression did not affect killing activities
- cell death, Bax expressing versus Bax lacking HCT116 cells [3]: Lack of Bax expression in HCT116 cells did not affect killing activities

Compound: COc1cccc(Cn2nc(C(=O)N3CCCC(O)C3)c3c2CCN(Cc2ccc(C)c(C)c2)C3)c1 (stereo not drawn) [compound 106, 1-{[5-(3,4-dimethylbenzyl)-1-(3-methoxybenzyl)-4,5,6,7-tetrahydro-1H-pyrazolo[4,3-c]pyridin-3-yl]carbonyl}-3-piperidinol]
- cytotoxicity dependent on Bax but not on Bak (test of the 46 candidate agents) ([1]; MEF cell lines re-expressing only Bax or Bak, and Bax−/−Bak−/− MEFs): exhibited the highest Bax- and dose-dependent cytotoxicity
- rank by activity to induce Bax-dependent apoptosis [1]: 1
- combination index (CI) (A549 cells): smaller than 1
- combination index (CI) (PANC-1 cells): smaller than 1

Compound: CSc1ccc(C2N=C3NCN(Cc4cccnc4)CN3c3nc4ccccc4n32)cc1 (stereo not drawn) [ZINC 13638227, 6-(4-(methylthio)phenyl)-2-(pyridin-3-ylmethyl)-2,3,4,6-tetrahydro-1H-benzo[4,5]imidazo[1,2-a][1,3,5]triazino[1,2-c][1,3,5]triazine]
- rank by activity to induce Bax-dependent apoptosis [1]: 3
